Reference: patent US11046699B2, “Pyrazolo-pyrimidin-amino-cycloalkyl compounds and their therapeutic uses” (RAPT THERAPEUTICS, INC., priority 2018, dated 2021)

These compounds were tested against GCN2 (Homo sapiens, UniProt Q9P2K8) (assay: GCN2 enzymatic endpoint assay: phosphorylation of GFP-eIF2α measured by TR-FRET (Lanthascreen)). Settings: GCN2 biochemical IC50; 4 nM GCN2, 2 μM ATP, 80 nM GFP-eIF2α, 90 min RT; read-out: GCN2 activity.
Assay type: biochemical
Procedure, shortened: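 Endpoint kinase reaction with 2 μM ATP and 80 nM GFP-labelled eIF2α substrate, run at room temperature for 90 min, then stopped with EDTA. Phospho-substrate detected by terbium-antibody TR-FRET, activity taken as the 520/495 nm emission ratio.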

Sequence of GCN2 (Q9P2K8 whole entry): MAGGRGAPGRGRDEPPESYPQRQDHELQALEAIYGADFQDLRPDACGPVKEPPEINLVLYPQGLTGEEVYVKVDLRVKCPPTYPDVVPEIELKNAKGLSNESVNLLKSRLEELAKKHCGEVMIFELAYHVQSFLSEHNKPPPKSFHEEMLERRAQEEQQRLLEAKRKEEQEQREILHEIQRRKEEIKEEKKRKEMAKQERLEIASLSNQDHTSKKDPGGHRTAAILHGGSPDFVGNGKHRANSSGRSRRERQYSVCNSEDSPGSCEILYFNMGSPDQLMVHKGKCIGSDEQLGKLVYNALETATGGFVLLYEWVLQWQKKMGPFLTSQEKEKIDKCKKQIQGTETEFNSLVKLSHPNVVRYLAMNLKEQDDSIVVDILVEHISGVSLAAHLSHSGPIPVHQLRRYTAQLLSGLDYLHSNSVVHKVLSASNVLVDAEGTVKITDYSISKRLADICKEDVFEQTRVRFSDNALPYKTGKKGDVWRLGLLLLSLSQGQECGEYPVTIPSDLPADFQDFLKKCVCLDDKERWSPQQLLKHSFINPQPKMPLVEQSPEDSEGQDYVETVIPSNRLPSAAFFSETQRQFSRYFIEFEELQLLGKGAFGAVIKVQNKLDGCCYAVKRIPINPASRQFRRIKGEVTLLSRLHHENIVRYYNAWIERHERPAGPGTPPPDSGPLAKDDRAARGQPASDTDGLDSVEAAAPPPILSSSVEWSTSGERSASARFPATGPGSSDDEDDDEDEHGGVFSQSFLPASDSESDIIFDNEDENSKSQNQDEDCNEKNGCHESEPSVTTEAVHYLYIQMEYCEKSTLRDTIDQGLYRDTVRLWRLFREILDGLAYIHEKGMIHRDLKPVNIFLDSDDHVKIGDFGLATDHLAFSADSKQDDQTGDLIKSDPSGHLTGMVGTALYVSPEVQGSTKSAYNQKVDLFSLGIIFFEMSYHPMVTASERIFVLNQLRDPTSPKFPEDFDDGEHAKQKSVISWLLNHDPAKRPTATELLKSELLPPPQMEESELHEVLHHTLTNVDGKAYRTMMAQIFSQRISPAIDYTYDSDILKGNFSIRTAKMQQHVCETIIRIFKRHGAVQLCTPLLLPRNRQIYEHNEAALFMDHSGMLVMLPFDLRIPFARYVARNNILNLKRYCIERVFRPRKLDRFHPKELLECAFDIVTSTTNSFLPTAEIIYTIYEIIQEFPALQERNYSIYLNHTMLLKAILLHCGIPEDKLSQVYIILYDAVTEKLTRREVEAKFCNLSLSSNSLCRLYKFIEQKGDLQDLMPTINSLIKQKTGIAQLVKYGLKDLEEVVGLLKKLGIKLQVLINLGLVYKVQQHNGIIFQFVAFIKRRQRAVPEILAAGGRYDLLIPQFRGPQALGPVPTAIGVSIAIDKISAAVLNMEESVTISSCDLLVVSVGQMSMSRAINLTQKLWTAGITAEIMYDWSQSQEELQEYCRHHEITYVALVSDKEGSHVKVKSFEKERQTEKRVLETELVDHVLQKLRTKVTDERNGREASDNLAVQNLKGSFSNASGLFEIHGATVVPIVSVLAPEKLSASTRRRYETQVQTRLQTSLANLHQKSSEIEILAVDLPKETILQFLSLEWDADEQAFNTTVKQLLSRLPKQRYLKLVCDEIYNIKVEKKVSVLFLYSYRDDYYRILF

Row | IC50 | Compound
1 | 500 to 1000 nM | CN1CCN(C(=O)[C@@H]2CC[C@@H](Nc3ncc4c(Br)nn(-c5ccc(-c6cccnc6)c(F)c5)c4n3)C2)CC1=O [Example 27, 4-((1R,3R)-3-((3-bromo-1-(3-fluoro-4-(pyridin-3-yl)phenyl)-1H-pyrazolo[3,4-d]pyrimidin-6-yl)amino)cyclopentane-1-carbonyl)-1-methylpiperazin-2-one]
2 | 500 to 1000 nM | COCCNC(=O)[C@@H]1CCC[C@@H](Nc2ncc3c(Br)nn(-c4ccc5ncccc5c4)c3n2)C1 [Example 20, (1R,3R)-3-((3-bromo-1-(quinolin-6-yl)-1H-pyrazolo[3,4-d]pyrimidin-6-yl)amino)-N-(2-methoxyethyl)cyclohexane-1-carboxamide]

Same assay, conditions: tested as described in Example 77; compound and/or hydrochloride, dihydrochloride or trifluoroacetic acid salt; read-out: IC 50 Activity

Row | Compound | IC50
3 | CC1(C(=O)N2CCC(F)(C#N)C2)CC[C@@H](Nc2ncc3c(Br)nn(-c4cc(F)c5ncccc5c4)c3n2)C1 (stereo partly drawn) [1-[(3R)-3-[[3-bromo-1-(8-fluoro-6-quinolyl)pyrazolo[3,4-d]pyrimidin-6-yl]amino]-1-methyl-cyclopentanecarbonyl]-3-fluoro-pyrrolidine-3-carbonitrile] | 25 to 200 nM
4 | O=C(NC1COC1)[C@@H]1CC[C@@H](Nc2ncc3c(Br)nn(-c4ccc5ncccc5c4)c3n2)C1 [(1R,3R)-3-((3-bromo-1-(quinolin-6-yl)-1H-pyrazolo[3,4-d]pyrimidin-6-yl)amino)-N-(oxetan-3-yl)cyclopentane-1-carboxamide] | 25 to 200 nM
5 | CNC(=O)[C@]1(C)CC[C@@H](Nc2ncc3c(Br)nn(-c4ccc(-c5nnc(C)s5)c(CC(N)C(F)(F)F)c4)c3n2)C1 (stereo partly drawn) [(1R,3R)-3-[[1-[3-(2-amino-3,3,3-trifluoro-propyl)-4-(5-methyl-1,3,4-thiadiazol-2-yl)phenyl]-3-bromo-pyrazolo[3,4-d]pyrimidin-6-yl]amino]-N,1-dimethyl-cyclopentane-carboxamide] | 25 to 200 nM
6 | COCCNC(=O)[C@]1(C)CC[C@@H](Nc2ncc3c(Br)nn(-c4ccc5ncccc5c4)c3n2)C1 [(1R,3R)-3-((3-bromo-1-(quinolin-6-yl)-1H-pyrazolo[3,4-d]pyrimidin-6-yl)amino)-N-(2-methoxyethyl)-1-methylcyclopentane-1-carboxamide] | 25 to 200 nM
7 | CNC(=O)[C@]1(C)CC[C@@H](Nc2ncc3c(Br)nn(-c4ccc(-c5nnc(C(C)N)s5)cc4)c3n2)C1 (stereo partly drawn) [(1R,3R)-3-[[1-[4-[5-(1-aminoethyl)-1,3,4-thiadiazol-2-yl]phenyl]-3-bromo-pyrazolo [3,4-d]pyrimidin-6-yl]amino]-N,1-dimethyl-cyclopentanecarboxamide] | 25 to 200 nM
8 | COCCNC(=O)[C@@H]1CC[C@@H](Nc2ncc3c(Br)nn(-c4ccc5nc(C)ccc5c4)c3n2)C1 [(1R,3R)-3-((3-bromo-1-(2-methylquinolin-6-yl)-1H-pyrazolo[3,4-d]pyrimidin-6-yl)amino)-N-(2-methoxyethyl)cyclopentane-1-carboxamide] | 200 to 500 nM
9 | CC(C)(CN1CCCC1)NC(=O)[C@@H]1CC[C@@H](Nc2ncc3c(Br)nn(-c4ccc5ncccc5c4)c3n2)C1 | 25 to 200 nM
10 | Cc1nnc(-c2ccc(-n3nc(Br)c4cnc(N[C@@H]5CCC(S(C)(=O)=O)C5)nc43)cc2)s1 (stereo partly drawn) [3-bromo-N-[(1R)-3-methylsulfonylcyclo-pentyl]-1-[4-(5-methyl-1,3,4-thiadiazol-2-yl)phenyl]pyrazolo[3,4-d]pyrimidin-6-amine] | 25 to 200 nM
11 | CNC(=O)[C@]1(C)CC[C@@H](Nc2ncc3c(Br)nn(-c4ccc(-c5nnc(C)s5)c(F)c4)c3n2)C1 | < 25 nM
12 | Cc1nnc(-c2ccc(-n3nc(Br)c4cnc(N[C@@H]5CC[C@@](C)(C(=O)N6CCCC6)C5)nc43)cc2)s1 [[(1R,3R)-3-[[3-bromo-1-[4-(5-methyl-1,3,4-thiadiazol-2-yl)phenyl]pyrazolo[3,4-d]pyrimidin-6-yl]amino]-1-methyl-cyclopentyl]-pyrrolidin-1-yl-methanone] | 25 to 200 nM
13 | O=C(NCCc1cnc[nH]1)[C@@H]1CC[C@@H](Nc2ncc3c(Br)nn(-c4ccc5ncccc5c4)c3n2)C1 [(1R,3R)-N-(2-(1H-imidazol-5-yl)ethyl)-3-((3-bromo-1-(quinolin-6-yl)-1H-pyrazolo [3,4-d]pyrimidin-6-yl)amino)cyclopentane-1-carboxamide] | 200 to 500 nM
14 | CNC(=O)[C@@H]1CC[C@@H](Nc2ncc3c(Br)nn(-c4ccc(N5CCOCC5)c(C#N)c4)c3n2)C1 [(1R,3R)-3-((3-bromo-1-(3-cyano-4-morpholinophenyl)-1H-pyrazolo[3,4-d]pyrimidin-6-yl)amino)-N-methylcyclo-pentane-1-carboxamide] | 500 to 1000 nM
15 | COCCNC(=O)[C@@H]1CC[C@@H](Nc2ncc3c(Br)nn(-c4ccc5nc(C)cc(Cl)c5c4)c3n2)C1 [(1R,3R)-3-((3-bromo-1-(4-chloro-2-methyl-quinolin-6-yl)-1H-pyrazolo[3,4-d]pyrimidin-6-yl)amino)-N-(2-methoxyethyl)cyclopentane-1-carboxamide] | 200 to 500 nM

Second part, the compound after the results:

Row | IC50 | Compound
16 | 25 to 200 nM | N#Cc1cc(-n2nc(Br)c3cnc(N[C@@H]4CC[C@@H](C(=O)NC5CCS(=O)(=O)CC5)C4)nc32)cc2cccnc12 [(1R,3R)-3-((3-bromo-1-(8-cyanoquinolin-6-yl)-1H-pyrazolo[3,4-d]pyrimidin-6-yl)amino)-N-(1,1-dioxidotetrahydro-2H-thiopyran-4-yl)cyclopentane-1-carboxamide]
17 | 25 to 200 nM | C[C@H]1CN(C(=O)[C@@H]2CC[C@@H](Nc3ncc4c(Br)nn(-c5ccc6ncccc6c5)c4n3)C2)C[C@H](C)N1 [((1R,3R)-3-((3-bromo-1-(quinolin-6-yl)-1H-pyrazolo[3,4-d]pyrimidin-6-yl)amino)cyclo-pentyl)((3S,5S)-3,5-dimethylpiperazin-1-yl)methanone]
18 | < 25 nM | CNC(=O)[C@]1(C)CC[C@@H](Nc2ncc3c(Br)nn(-c4cc(F)cc(CCO)c4)c3n2)C1 [(1R,3R)-3-[[3-bromo-1-[3-fluoro-5-(2-hydroxyethyl)phenyl]pyrazolo [3,4-d]pyrimidin-6-yl]amino]-N,1-dimethyl-cyclopentanecarboxamide]
19 | 25 to 200 nM | CNC(=O)[C@]1(C)CC[C@@H](Nc2ncc3c(Br)nn(-c4ccc5nc(NC(C)=O)ncc5c4)c3n2)C1 [(1R,3R)-3-[[1-(2-acetamidoquinazolin-6-yl)-3-bromo-pyrazolo[3,4-d]pyrimidin-6-yl]amino]-N,1-dimethyl-cyclopentane-carboxamide; 2,2,2-trifluoroacetic acid]
20 | 25 to 200 nM | CNC(=O)[C@]1(C)CC[C@@H](Nc2ncc3c(Br)nn(-c4ccc(-c5ncco5)c(C5CCNCC5)c4)c3n2)C1 [(1R,3R)-3-[[3-bromo-1-[4-oxazol-2-yl-3-(4-piperidyl)phenyl]pyrazolo[3,4-d]pyrimidin-6-yl]amino]-N,1-dimethyl-cyclopentanecarboxamide]
21 | 500 to 1000 nM | Cc1nnc(-c2ccc(-n3nc(Br)c4cnc(N[C@@H]5CC[C@@H](NC(=O)C(C)C)C5)nc43)cc2CCC#N)s1 [N-[(1R,3R)-3-[[3-bromo-1-[3-(2-cyanoethyl)-4-(5-methyl-1,3,4-thiadiazol-2-yl)phenyl]pyrazolo[3,4-d]pyrimidin-6-yl]amino]cyclopentyl]-2-methyl-propanamide]
22 | 25 to 200 nM | CNS(=O)(=O)C1CC[C@@H](Nc2ncc3c(Br)nn(-c4ccc(-c5nnc(C)s5)c(C#N)c4)c3n2)C1 (stereo partly drawn) [(3R)-3-[[3-bromo-1-[3-cyano-4-(5-methyl-1,3,4-thiadiazol-2-yl)phenyl]pyrazolo[3,4-d]pyrimidin-6-yl]amino]-N-methyl-cyclopentanesulfonamide]
23 | 25 to 200 nM | O=C([C@@H]1CC[C@@H](Nc2ncc3c(Br)nn(-c4ccc5ncccc5c4)c3n2)C1)N1CC[S+]([O-])CC1 [((1R,3R)-3-((3-bromo-1-(quinolin-6-yl)-1H-pyrazolo[3,4-d]pyrimidin-6-yl)amino)cyclo-pentyl)(1-oxidothiomorpholino)methanone]
24 | 25 to 200 nM | CNC(=O)[C@]1(C)CC[C@@H](Nc2ncc3c(Br)nn(-c4ccc5c(c4)CN(S(=O)(=O)C4COC4)C5)c3n2)C1 [(1R,3R)-3-[[3-bromo-1-[2-(oxetan-3-ylsulfonyl)isoindolin-5-yl]pyrazolo[3,4-d]pyrimidin-6-yl]amino]-N,1-dimethyl-cyclopentanecarboxamide]
25 | < 25 nM | CNC(=O)[C@@]1(C)CC[C@@H](Nc2ncc3c(Br)nn(-c4ccc5ncc(CCO)cc5c4)c3n2)C1 [(1S,3R)-3-[[3-bromo-1-[3-(2-hydroxy-ethyl)-6-quinolyl]pyrazolo[3,4-d]pyrimidin-6-yl]amino]-N,1-dimethyl-cyclopentanecarboxamide]
26 | < 25 nM | CNC(=O)[C@]1(CC(=O)N(C)C)CC[C@@H](Nc2ncc3c(Br)nn(-c4cc(F)c5ncccc5c4)c3n2)C1 [(1R,3R)-3-[[3-bromo-1-(8-fluoro-6-quinolyl)pyrazolo[3,4-d]pyrimidin-6-yl]amino]-1-[2-(dimethylamino)-2-oxo-ethyl]-N-methyl-cyclopentanecarboxamide]
27 | 25 to 200 nM | CNC(=O)[C@]1(C)CC[C@@H](Nc2ncc3c(Br)nn(-c4ccc5c(c4)OCC(=O)N5)c3n2)C1 [(1R,3R)-3-[[3-bromo-1-(3-oxo-4H-1,4-benzoxazin-7-yl)pyrazolo[3,4-d]pyrimidin-6-yl]amino]-N,1-dimethyl-cyclopentanecarboxamide]
28 | 25 to 200 nM | CNC(=O)[C@@H]1CC[C@@H](Nc2ncc3c(I)nn(-c4ccc(-c5nnc(C)o5)cc4)c3n2)C1 [(1R,3R)-3-[[3-iodo-1-[4-(5-methyl-1,3,4-oxadiazol-2-yl)phenyl]pyrazolo[3,4-d]pyrimidin-6-yl]amino]-N-methyl-cyclopentanecarboxamide]
29 | 25 to 200 nM | CNC(=O)C1(CCC#N)CC[C@@H](Nc2ncc3c(Br)nn(-c4ccc(-c5nnc(C)s5)cc4)c3n2)C1 (stereo partly drawn) [(3R)-3-[[3-bromo-1-[4-(5-methyl-1,3,4-thiadiazol-2-yl)phenyl]pyrazolo[3,4-d]pyrimidin-6-yl]amino]-1-(2-cyanoethyl)-N-methyl-cyclopentanecarboxamide]
30 | 25 to 200 nM | CNC(=O)[C@]1(CC(F)F)CC[C@@H](Nc2ncc3c(Br)nn(-c4ccc(-c5cnccn5)cc4)c3n2)C1 [(1R,3R)-3-[[3-bromo-1-(4-pyrazin-2-ylphenyl)pyrazolo[3,4-d]pyrimidin-6-yl]amino]-1-(2,2-difluoroethyl)-N-methyl-cyclopentanecarboxamide]
